These results are taken from ChEMBL document CHEMBL1221165, “Actin is the primary cellular receptor of bistramide A” (Nat Chem Biol, 2005).

Molecules are shown by their SMILES. Active and inactive are the calls of the source. The rule behind the calls is not given here. Bounds are passed on as bounds.

In general, IC50 refers to the point on the concentration scale where inhibition reaches its midpoint. By GI50 is commonly meant the concentration at which growth is held to half of that of the control. Usually Kd stands for the equilibrium constant for the complex coming apart. A lower Kd goes with tighter binding. The term Ki denotes a measure of affinity in units of concentration, obtained from inhibition or displacement.

The test system of test [1] is PC-3. Nature of the test: Cell cycle arrest in human PC3 cells assessed as accumulation at G2/M phase at 1 uM after 48 hrs (Rbv = 19%). The test is classed as functional.
Test [2] concerns CA46. The experiment in a line: Cell cycle arrest in human CA46 cells assessed as accumulation at G2/M phase at 1 uM after 48 hrs. The class given is functional, cell-based.
Test [3] deals with A549. The experiment in a line: Cytotoxicity against human A549 cells assessed as cell viability after 48 hrs. To be noted: A549, 48 h. The class given is functional, cell-based.
The subject of test [4] is CHO-K1. The experiment in a line: Dissolution of filamentous actin in chinese hamster CHOK1 cells at 20 nM within 15 mins by using FITC-phallodin staining by fluorescent microscopy. The class given is cell-based. The settings on record: Cricetulus griseus.
For test [5], the system named is CA46. The experiment in a line: Antiproliferative activity against human CA46 cells assessed as mitotic cells at 1 uM after 48 hrs by visual examination (Rbv = 3%). The class given is functional.
For test [6], the system named is MCF7. Nature of the test: Cell cycle arrest in human MCF7 cells assessed as accumulation at S phase at 1 uM after 48 hrs (Rbv = 18%). The class given is functional.
For test [7], the target named is Protein kinase C delta type (Rattus norvegicus) (UniProt P09215). Nature of the test: Induction of rat recombinant PKCdelta activity.
Protein kinase C delta type (Rattus norvegicus), sequence (P09215 whole entry): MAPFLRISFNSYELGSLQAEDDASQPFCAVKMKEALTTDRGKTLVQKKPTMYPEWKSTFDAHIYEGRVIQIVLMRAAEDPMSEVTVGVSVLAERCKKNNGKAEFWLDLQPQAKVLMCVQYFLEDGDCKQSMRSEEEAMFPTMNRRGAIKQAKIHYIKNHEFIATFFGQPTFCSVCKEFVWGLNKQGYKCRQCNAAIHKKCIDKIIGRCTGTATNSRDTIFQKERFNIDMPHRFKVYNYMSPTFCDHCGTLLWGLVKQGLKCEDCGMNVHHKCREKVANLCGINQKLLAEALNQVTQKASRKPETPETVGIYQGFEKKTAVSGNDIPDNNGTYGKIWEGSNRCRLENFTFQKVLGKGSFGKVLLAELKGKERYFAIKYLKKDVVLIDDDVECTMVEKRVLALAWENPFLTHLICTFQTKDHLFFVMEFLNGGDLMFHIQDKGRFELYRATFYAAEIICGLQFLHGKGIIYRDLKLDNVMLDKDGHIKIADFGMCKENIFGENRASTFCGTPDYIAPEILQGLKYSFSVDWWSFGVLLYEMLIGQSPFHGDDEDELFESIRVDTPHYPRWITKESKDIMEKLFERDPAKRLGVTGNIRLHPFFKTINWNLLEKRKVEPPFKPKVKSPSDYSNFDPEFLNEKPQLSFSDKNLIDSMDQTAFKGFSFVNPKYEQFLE
In test [8] the target is T1, Protein kinase C delta type (Homo sapiens, UniProt Q05655). The experiment in a line: Induction of human recombinant PKCdelta assessed as phosphorylation of amphiphilic peptide substrate at 0.1 uM in presence of 10 uM phosphatidylserine relative to control.
Target sequence in this assay (Q05655 whole entry, looked up): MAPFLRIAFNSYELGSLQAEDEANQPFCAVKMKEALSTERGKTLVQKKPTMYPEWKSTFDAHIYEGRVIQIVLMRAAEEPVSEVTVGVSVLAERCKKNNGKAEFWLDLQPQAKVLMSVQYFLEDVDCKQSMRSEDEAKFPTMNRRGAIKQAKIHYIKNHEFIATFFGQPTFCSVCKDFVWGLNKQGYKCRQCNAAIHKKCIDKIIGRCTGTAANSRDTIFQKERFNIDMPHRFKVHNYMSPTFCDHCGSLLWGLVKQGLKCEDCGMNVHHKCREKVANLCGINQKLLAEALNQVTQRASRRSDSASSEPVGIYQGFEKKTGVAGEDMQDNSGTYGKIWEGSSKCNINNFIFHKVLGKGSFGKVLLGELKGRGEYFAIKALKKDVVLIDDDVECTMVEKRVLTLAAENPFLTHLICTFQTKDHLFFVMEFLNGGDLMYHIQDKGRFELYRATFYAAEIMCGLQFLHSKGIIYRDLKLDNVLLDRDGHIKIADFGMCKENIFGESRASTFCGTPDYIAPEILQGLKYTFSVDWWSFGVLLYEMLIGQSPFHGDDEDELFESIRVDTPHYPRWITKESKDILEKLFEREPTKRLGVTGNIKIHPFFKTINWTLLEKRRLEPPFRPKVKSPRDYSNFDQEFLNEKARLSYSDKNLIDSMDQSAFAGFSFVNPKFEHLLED
The test system of test [9] is A549. Nature of the test: Inhibition of globular actin polymerization at steady state in human A549 cells assessed as change in fluorescence intensity. The class given is cell-based.
Test [10] concerns MCF7. Nature of the test: Cell cycle arrest in human MCF7 cells assessed as accumulation at G2/M phase at 1 uM after 48 hrs (Rbv = 7%). The class given is functional.
Test [11] relates to HCT-116. Nature of the test: Cytotoxicity against human HCT116 cells assessed as cell viability after 48 hrs. The settings on record: HCT-116, 48 h. The test is classed as functional, cell-based.
For test [12], the system named is HL-60. The experiment in a line: Cell cycle arrest in human HL60 cells assessed as accumulation at G2/M phase at 0.5 uM after 48 hrs (Rbv = 11%). The class given is functional.
The subject of test [13] is A549. The experiment in a line: Cytotoxicity against human A549 cells assessed as growth inhibition after 48 hrs. The test is classed as functional. The settings on record: A549, 48 h.
Test [14] deals with PC-3. Nature of the test: Cell cycle arrest in human PC3 cells assessed as accumulation at G1 phase at 1 uM after 48 hrs (Rbv = 58%). The class given is functional.
In test [15] the test system is PC-3. Nature of the test: Cell cycle arrest in human PC3 cells assessed as accumulation at S phase at 1 uM after 48 hrs (Rbv = 18%). The class given is functional.
Test [16] is filed under the species Oryctolagus cuniculus. Nature of the test: (§1) Binding affinity to rabbit skeletal muscle monomeric actin by isothermal calorimetric method. The class given is tissue-based. To be noted: Muscle tissue.
In test [17] the test system is PC-3. The experiment in a line: Dissolution of filamentous actin in human PC3 cells at 20 nM within 15 mins by using FITC-phallodin staining by fluorescent microscopy. The class given is functional, cell-based.
Test [18] relates to HCT-116. The experiment in a line: Cytotoxicity against human HCT116 cells assessed as growth inhibition after 48 hrs. To be noted: HCT-116, 48 h. The class given is functional.
The subject of test [19] is HL-60. Nature of the test: Cell cycle arrest in human HL60 cells assessed as accumulation at S phase at 0.5 uM after 48 hrs (Rbv = 44%). The test is classed as functional.
Test [20] in a line: Binding affinity to rabbit skeletal muscle globular actin by isothermal calorimetric method. The class given is tissue-based, Oryctolagus cuniculus, Muscle tissue. Background: In ITC the heat of successive injections is recorded.
Test [21] can be described thus: Depolymerization of Mg2+ filamentous actin in human A549 cells at 450 nM by using FITC-phallodin staining. The test is classed as cell-based.
The subject of test [22] is PC-3. Nature of the test: Cytotoxicity against human PC3 cells assessed as growth inhibition after 48 hrs. To be noted: PC-3, 48 h. The class given is functional.
Test [23] relates to MCF7. The experiment in a line: Cell cycle arrest in human MCF7 cells assessed as accumulation at G1 phase at 1 uM after 48 hrs (Rbv = 73%). The class given is functional.
Test [24] concerns A549. The experiment in a line: Increase in dissolution of filamentous actin in human A549 cells at 120 to 450 nM by using FITC-phallodin staining by fluorescent microscopy. The test is classed as cell-based.
Test [25] relates to MCF7. Nature of the test: Cell cycle arrest in human MCF7 cells assessed as accumulation at G0/G1 phase at 1 uM after 48 hrs (Rbv = 74%). The test is classed as functional.
Test [26] concerns PC-3. The experiment in a line: Cytotoxicity against human PC3 cells assessed as cell viability after 48 hrs. The settings on record: PC-3, 48 h. The test is classed as functional, cell-based.
Test [27] relates to HL-60. The experiment in a line: Cytotoxicity against human HL60 cells assessed as growth inhibition after 48 hrs. The test is classed as functional. To be noted: HL-60, 48 h.
Test [28] relates to A549. Nature of the test: Dissolution of filamentous actin in human A549 cells at 50 to 150 nM by using FITC-phallodin staining by fluorescent microscopy. The class given is cell-based. The settings on record: TDE = time-dependent effect.
Test [29] deals with HL-60. The experiment in a line: Cytotoxicity against human HL60 cells assessed as cell viability after 48 hrs. The test is classed as functional, cell-based. The settings on record: HL-60, 48 h.
The nature of test [30]: Depolymerization of Ca2+ filamentous actin in human A549 cells at 450 nM by using FITC-phallodin staining. The test is classed as cell-based.
Test [31] relates to RBL-2H3. Nature of the test: Induction of GFP-PKCdelta translocation from cytoplasm to nuclear in RBL2H3 cells at 5 uM over 30 mins by fluorescent imaging. The test is classed as functional, cell-based. To be noted: Rattus norvegicus.
The test system of test [32] is CA46. Nature of the test: Cell cycle arrest in human CA46 cells assessed as accumulation at G0/G1 phase at 1 uM after 48 hrs. The class given is functional, cell-based.
Test [33] has as its system PtK2. The experiment in a line: Dissolution of filamentous actin in […] PtK2 cells at 20 nM within 15 mins by using FITC-phallodin staining by fluorescent microscopy. The class given is cell-based.
For test [34], the system named is CA46. Nature of the test: Antiproliferative activity against human CA46 cells assessed as binucleated cells at 1 uM after 48 hrs by visual examination (Rbv = 6%). The class given is functional.
Test [35] deals with T1, Protein kinase C delta type. The experiment in a line: Displacement of [3H]PDBu from human recombinant PKCdelta by competitive binding assay.
Target sequence in this assay (Q05655 whole entry): as the sequence (Q05655 whole entry, looked up) above
Test [36] deals with HL-60. The experiment in a line: Cell cycle arrest in human HL60 cells assessed as accumulation at G1 phase at 0.5 uM after 48 hrs (Rbv = 38%). The class given is functional.
Test [37] concerns the target T1, Protein kinase C delta type. Nature of the test: Induction of human recombinant PKCdelta assessed as phosphorylation of amphiphilic peptide substrate at 1 uM in presence of 10 uM phosphatidylserine relative to control.
Target sequence in this assay (Q05655 whole entry, looked up): as above
Test [38] has as its system A549. The experiment in a line: Dissolution of filamentous actin in human A549 cells after 1 hr by using FITC-phallodin staining by fluorescent microscopy. The class given is cell-based.
The nature of test [39]: as §1. The class given is tissue-based, Oryctolagus cuniculus, Muscle tissue.
Test [40] is described as follows: Inhibition of actin polymerization.
For test [41], the system named is RBL-2H3. Nature of the test: Induction of GFP-PKCdelta translocation from cytoplasm to plasma membrane in RBL2H3 cells at 200 nM over 30 mins by fluorescent imaging. The class given is functional, cell-based. The settings on record: Rattus norvegicus.
In test [42] the test system is RBL-2H3. Nature of the test: Induction of GFP-PKCdelta translocation from cytoplasm to nuclear in RBL2H3 cells at 200 nM over 30 mins by fluorescent imaging. The test is classed as functional, cell-based. The settings on record: Rattus norvegicus.

Turning to `C/C=C/C(=O)C[C@H]1CC[C@H](C)[C@H](CC(=O)NC[C@H](O)[C@H](C)C(=O)NCCC[C@H]2O[C@@]3(CCC[C@H](CC[C@H](C)/C=C(\C)[C@H](C)O)O3)CC[C@@H]2C)O1` [BISTRAMIDE A], the Activity in test [1] is recorded as 43%; in [5] it was 4%; in test [6], 24%; in [10] it was 38%; in test [12], 27%; in test [14], 37%. The Activity was 14% in [15]; 48% in [19]; 33% in test [23]; 33% in [25]; “tde” in [28]; 48% in test [34]. Besides, the Activity in test [36] is 18%; in test [38] it was “Dose-dependent effect”. Moreover, the result in test [2], in [4], in test [17], in test [21], in test [24] and in test [30] was Active. Besides, the outcome in test [32] and in [33] was Active. In addition, the IC50 in test [3] is 63 nM; in [11] it was 437 nM; in [26], 107 nM; in test [29] it was over 1000 nM. For the same molecule, the result in test [7] and in [31] was inactive. The fold change (FC) was 4.5 in [8] and 3.8 in test [37]. Besides, in test [9], the inhibition entry was “Dose-dependent effect”. The 50% growth inhibitory concentration (GI50) in test [13] was determined as 13 nM; in [18], 200 nM; in [22], 5 nM; in [27], 200 nM. In addition, the Ka in test [16] came to 1.46 ×10⁸ /M. For the same molecule, the Kd in [20] was 7 nM. Also, in [35], the Ki worked out at 27000 nM.

Take `C/C1=C/C(=O)O[C@@H]2C[C@@H](CC[C@H](C)/C=C\C=C\CC1)O[C@@](O)([C@@H]1CSC(=O)N1)C2` [LATRUNCULIN A]: the figures for the equilibrium dissociation constant (Kd) in [39] and in test [40] were 170 nM and 200 nM, respectively.

Regarding `CCC/C=C/C=C/C(=O)O[C@H]1/C(=C/C(=O)OC)C[C@H]2C[C@H]([C@@H](C)O)OC(=O)C[C@H](O)C[C@@H]3C[C@H](OC(C)=O)C(C)(C)[C@](O)(C[C@@H]4C/C(=C/C(=O)OC)C[C@H](/C=C/C(C)(C)[C@]1(O)O2)O4)O3`, the result in test [41] and in test [42] was Active.
